From patent US6599893B2, “Cephalosporin antibiotics and prodrugs thereof” (Essential Therapeutics, Inc., priority 2000, dated 2003)
≈ marks a conversion by molar mass, not a printed value.

Assays:
Format in all cases: cell-based
[1] = system: Staphylococcus aureus COL (MRSA, non-β-lactamase producing); assay: Broth microdilution MIC, S. aureus COL; conditions: Staphylococcus aureus COL (MRSA, non-β-lactamase producing); for MIC: read-out: MIC S. a. COL
Method: (§1) Compounds were evaluated for antimicrobial activity against a panel of bacterial strains using a broth microdilution assay performed as recommended by the NCCLS (NCCLS (National Committee for Clinical Laboratory Standards). 1993. Methods for dilution antimicrobial susceptibility tests for bacteria that grow aerobically. NCCLS Document M7-A3, 1993. In: NCCLS Antimicrobial Susceptibility Testing, 3rd Ed.)
(§2) The minimum inhibitory concentration (MIC) is defined as the lowest concentration of a compound that prevents the growth of the bacteria.

[2] = system: Staphylococcus aureus ATCC 29213 (MSSA); assay: Broth microdilution MIC, S. aureus ATCC 29213; conditions: Staphylococcus aureus ATCC 29213 (MSSA); for MIC: read-out: MIC S. a. 29213
Method: as §1, §2

[3] = system: Enterococcus faecium ATCC 35667; assay: Broth microdilution MIC, E. faecium ATCC 35667; conditions: Enterococcus faecium ATCC 35667; for MIC: ATCC35667, read-out: MIC E. f. 35667
Method: as §1, §2

[4] = system: Enterococcus faecalis ATCC 29212; assay: Broth microdilution MIC, E. faecalis ATCC 29212; conditions: Enterococcus faecalis ATCC 29212; for MIC: ATCC29212, read-out: MIC E. f. 29212
Method: as §1, §2

[5] = system: Staphylococcus aureus 76 (MRSA, β-lactamase producing); assay: Broth microdilution MIC, S. aureus 76; conditions: Staphylococcus aureus 76 (MRSA, β-lactamase producing); for MIC: read-out: MIC S. a. 76
Method: as §1, §2

[6] = system: Staphylococcus aureus Smith (MSSA); assay: Broth microdilution MIC, S. aureus Smith; conditions: Staphylococcus aureus Smith (MSSA); for MIC: read-out: MIC S. a. Smith
Method: as §1, §2

Row | SMILES | MIC S. a. COL [1] [mg/L] | MIC S. a. 29213 [2] [mg/L] | MIC E. f. 35667 [3] [mg/L] | MIC E. f. 29212 [4] [mg/L] | MIC S. a. 76 [5] [mg/L] | MIC [1] [mg/L] | MIC [2] [mg/L] | MIC [3] [mg/L] | MIC [4] [mg/L] | MIC [5] [mg/L] | MIC [6] [mg/L] | MIC S. a. Smith [6] [mg/L]
1 | CON=C(C(=O)NC1C(=O)N2C(C(=O)O)=C(Sc3ccccc3Br)CSC12)c1csc(N)n1 (stereo not shown) [Compound 5] | 16 (≈ 28 µM) | 0.5 (≈ 0.876 µM) | 32 (≈ 56.1 µM) | >32 | 16 (≈ 28 µM) |  |  |  |  |  |  | 
2 | CON=C(C(=O)NC1C(=O)N2C(C(=O)O)=C(Sc3ccc(Br)cc3)CSC12)c1csc(N)n1 (stereo not shown) [Compound 6] |  | <0.015 | 16 (≈ 28 µM) | 16 (≈ 28 µM) | 32 (≈ 56.1 µM) |  |  |  |  |  |  | 
3 | Nc1nc(C(=NO)C(=O)NC2C(=O)N3C(C(=O)O)=C(Sc4ccccc4I)CSC23)cs1 (stereo not shown) [Compound 7] | 2 (≈ 3.31 µM) | <0.25 | 2 (≈ 3.31 µM) |  | 4 (≈ 6.63 µM) |  |  |  |  |  |  | 
4 | CON=C(C(=O)NC1C(=O)N2C(C(=O)O)=C(Sc3ccccc3I)CSC12)c1csc(N)n1 (stereo not shown) [Compound 8] | 32 (≈ 51.8 µM) | 1 (≈ 1.62 µM) | 32 (≈ 51.8 µM) |  | 32 (≈ 51.8 µM) |  |  |  |  |  |  | 
5 | Nc1nc(/C(=N/OC2CCCC2)C(=O)N[C@@H]2C(=O)N3C(C(=O)O)=C(Sc4ccccc4I)CS[C@H]23)cs1 [Compound 9] | 1 (≈ 1.49 µM) | <0.25 | 2 (≈ 2.98 µM) | 2 (≈ 2.98 µM) | 2 (≈ 2.98 µM) |  |  |  |  |  |  | 
6 | Nc1nc(C(=NO)C(=O)NC2C(=O)N3C(C(=O)O)=C(Sc4ccccc4-c4ccccc4)CSC23)cs1 (stereo not shown) [Compound 10] | 4 (≈ 7.22 µM) | 0.5 (≈ 0.903 µM) | 2 (≈ 3.61 µM) | 2 (≈ 3.61 µM) | 8 (≈ 14.4 µM) |  |  |  |  |  |  | 
7 | N#Cc1ccccc1SC1=C(C(=O)O)N2C(=O)[C@@H](NC(=O)/C(=N\OC3CCCC3)c3csc(N)n3)[C@H]2SC1 [Compound 12] | 4 (≈ 7.01 µM) | 1 (≈ 1.75 µM) | 8 (≈ 14 µM) | 8 (≈ 14 µM) | 8 (≈ 14 µM) |  |  |  |  |  |  | 
8 | Nc1nc(/C(=N/OCCF)C(=O)N[C@@H]2C(=O)N3C(C(=O)O)=C(Sc4ccnn4-c4ccccc4)CS[C@H]23)cs1 [Compound 14] |  |  |  |  |  | 8 (≈ 13.6 µM) | 1 (≈ 1.7 µM) | 16 (≈ 27.1 µM) | 32 (≈ 54.3 µM) | 16 (≈ 27.1 µM) |  | 
9 | Nc1nc(/C(=N/O)C(=O)N[C@@H]2C(=O)N3C(C(=O)O)=C(Sc4ccnn4-c4ccccc4)CS[C@H]23)cs1 [Compound 15] |  |  |  |  |  | 16 (≈ 29.4 µM) | 1 (≈ 1.84 µM) | 8 (≈ 14.7 µM) | 2 (≈ 3.68 µM) | 32 (≈ 58.9 µM) |  | 
10 | Nc1nc(/C(=N/OCCF)C(=O)N[C@@H]2C(=O)N3C(C(=O)O)=C(Sc4ccnn4-c4ccccc4)CS[C@H]23)c(Cl)s1 [Compound 16] |  |  |  |  |  | 2 (≈ 3.2 µM) | 0.5 (≈ 0.801 µM) | 4 (≈ 6.41 µM) | 1 (≈ 1.6 µM) | 4 (≈ 6.41 µM) | 0.5 (≈ 0.801 µM) | 
11 | CC(C)(C)O/N=C(\C(=O)N[C@@H]1C(=O)N2C(C(=O)O)=C(Sc3ccnn3-c3ccccc3)CS[C@H]12)c1csc(N)n1 [Compound 18] |  |  |  |  |  | 8 (≈ 13.3 µM) | 1 (≈ 1.67 µM) | 16 (≈ 26.7 µM) | 2 (≈ 3.33 µM) | 16 (≈ 26.7 µM) | 1 (≈ 1.67 µM) | 
12 | C=CCO/N=C(\C(=O)N[C@@H]1C(=O)N2C(C(=O)O)=C(Sc3ccnn3-c3ccccc3)CS[C@H]12)c1csc(N)n1 [Compound 20] |  |  |  |  |  | 8 (≈ 13.7 µM) | 1 (≈ 1.71 µM) | 32 (≈ 54.8 µM) | 32 (≈ 54.8 µM) | 16 (≈ 27.4 µM) | 0.5 (≈ 0.857 µM) | 
13 | Cn1ccnc1SC1=C(C(=O)O)N2C(=O)[C@@H](NC(=O)/C(=N\O)c3nc(N)sc3Cl)[C@H]2SC1 [Compound 31] | 16 (≈ 31 µM) | 0.5 (≈ 0.969 µM) | 16 (≈ 31 µM) | 1 (≈ 1.94 µM) | 32 (≈ 62 µM) |  |  |  |  |  |  | 0.125 (≈ 0.242 µM)
14 | Cc1nnc(SC2=C(C(=O)O)N3C(=O)[C@@H](NC(=O)/C(=N\O)c4nc(N)sc4Cl)[C@H]3SC2)s1 [Compound 33] | 4 (≈ 7.49 µM) | 1 (≈ 1.87 µM) | 4 (≈ 7.49 µM) | 1 (≈ 1.87 µM) | 8 (≈ 15 µM) |  |  |  |  |  |  | 0.5 (≈ 0.936 µM)
15 | CSc1nnc(SC2=C(C(=O)O)N3C(=O)[C@@H](NC(=O)C(=NO)c4nc(N)sc4Cl)C3SC2)s1 (stereo partly drawn) [Compound 44, (7R)-7-[2-(2-Amino-5-chlorothiazol-4-yl)-2-hydroxyiminoacetylamino]-3-(5-methylsulfanyl-[1,3,4]thiadiazol-2-ylsulfanyl)-8-oxo-5-thia-1-aza-bicyclo[4.2.0]oct-2-ene-2-carboxylic acid] |  |  |  |  |  | 1 (≈ 1.77 µM) | 0.25 (≈ 0.442 µM) | 1 (≈ 1.77 µM) | 0.25 (≈ 0.442 µM) | 1 (≈ 1.77 µM) |  | 
16 | Cc1noc(SC2=C(C(=O)O)N3C(=O)[C@@H](NC(=O)C(=NO)c4nc(N)sc4Cl)C3SC2)n1 (stereo partly drawn) [Compound 45, (7R)-7-[2-(2-Amino-5-chlorothiazol-4-yl)-2-hydroxyiminoacetylamino]-3-(3-methyl-[1,2,4]oxadiazol-5-ylsulfanyl)-8-oxo-5-thia-1-aza-bicyclo[4.2.0]oct-2-ene-2-carboxylic acid] |  |  |  |  |  | 4 (≈ 7.72 µM) | 0.5 (≈ 0.965 µM) | 0.5 (≈ 0.965 µM) | 0.125 (≈ 0.241 µM) | 4 (≈ 7.72 µM) | 1 (≈ 1.93 µM) | 
17 | Nc1nc(C(=NO)C(=O)N[C@@H]2C(=O)N3C(C(=O)O)=C(Sc4nnco4)CSC23)c(Cl)s1 (stereo partly drawn) [Compound 48, (7R)-7-[2-(2-Amino-5-chlorothiazol-4-yl)-2-hydroxyiminoacetylamino]-3-([1,3,4]oxadiazol-2-ylsulfanyl)-8-oxo-5-thia-1-aza-bicyclo[4.2.0]oct-2-ene-2-carboxylic acid] |  |  |  |  |  | 2 (≈ 3.97 µM) | 0.25 (≈ 0.496 µM) | 1 (≈ 1.98 µM) | 0.25 (≈ 0.496 µM) | 2 (≈ 3.97 µM) |  | 
18 | Nc1nc(C(=NO)C(=O)N[C@@H]2C(=O)N3C(C(=O)O)=C(Sc4nnc(N)s4)CSC23)cs1 (stereo partly drawn) [Compound 49, 3-(5-Amino-[1,3,4]thiadiazol-2-ylsulfanyl)-(7R)-7-[2-(2-aminothiazol-4-yl)-2-hydroxyiminoacetylamino]-8-oxo-5-thia-1-aza-bicyclo[4.2.0]oct-2-ene-2-carboxylic acid] |  |  |  |  |  | 4 (≈ 7.99 µM) | 0.25 (≈ 0.499 µM) | 1 (≈ 2 µM) | 0.5 (≈ 0.999 µM) | 8 (≈ 16 µM) |  | 
19 | Nc1nc(C(=NO)C(=O)N[C@@H]2C(=O)N3C(C(=O)O)=C(Sc4nncs4)CSC23)ns1 (stereo partly drawn) [Compound 50, (7R)-7-[2-(5-Amino-[1,2,4]thiadiazol-3-yl)-2-hydroxyiminoacetylamino]-8-oxo-3-([1,3,4]thiadiazol-2-ylsulfanyl)-5-thia-1-aza-bicyclo [4.2.0]oct-2-ene-2-carboxylic acid] |  |  |  |  |  | 4 (≈ 8.22 µM) | 0.25 (≈ 0.514 µM) | 2 (≈ 4.11 µM) | 1 (≈ 2.06 µM) | 8 (≈ 16.4 µM) |  | 
20 | Nc1nc(C(=NO)C(=O)N[C@@H]2C(=O)N3C(C(=O)O)=C(Sc4nc(Cl)ns4)CSC23)c(Cl)s1 (stereo partly drawn) [Compound 52, (7R)-7-[2-(2-Amino-5-chlorothiazol-4-yl)-2-hydroxyiminoacetylamino]-3-(3-chloro-[1,2,4]thiadiazol-5-ylsulfanyl)-8-oxo-5-thia-1-aza-bicyclo[4.2.0]oct-2-ene-2-carboxylic acid] |  |  |  |  |  | 1 (≈ 1.8 µM) | 0.25 (≈ 0.451 µM) | 1 (≈ 1.8 µM) | 0.25 (≈ 0.451 µM) | 2 (≈ 3.61 µM) |  | 
